The values below come from ChEMBL document CHEMBL4024702, “Covalent Modifiers: A Chemical Perspective on the Reactivity of α,β-Unsaturated Carbonyls with Thiols via Hetero-Michael Addition Reactions” (J Med Chem, 2017).

pEC50: −log10 of the molar value.

Data set [1] can be described thus: Glutathione reactivity of the compound in DMSO and phosphate buffer assessed as second order rate constant for adduct formation.
For data set [2], the system named is rhinovirus B14. Put plainly: Irreversible inhibition of human rhinovirus serotype 14 3C protease assessed as ratio of Kobs/I by spectrofluorimetric analysis.
Data set [3] concerns rhinovirus B14. Put plainly: Antiviral activity against rhinovirus serotype 14 infected in human H1HeLa cells after 2 days by XTT/PMS dye based assay. Conditions: Rhinovirus B, H1-HeLa, 48 h. The data set is classed as functional, cell-based. In general terms: Formazan colour is commonly taken as a measure of viable cells.
Data set [4] can be described thus: Cytotoxicity against human H1HeLa cells after 2 days by XTT/PMS dye based assay. It is filed as cell-based, H1-HeLa.

As to `CCCCC/C=C/C=O`, in data set [1], the K was 18 M⁻¹ s⁻¹.
On to `CCNC(=O)/C=C/[C@H](CCC(N)=O)NC(=O)[C@H](Cc1ccccc1)NC(=O)[C@H](CC(C)C)NC(=O)OCc1ccccc1`, for which the Ratio in the data set on rhinovirus B14 [2] was determined as 350 M⁻¹ s⁻¹. Also, the pEC50 (usually the negative decadic logarithm of the EC50, by convention in mol/L) in the data set with rhinovirus B14 [3] is less than 3.49. The CC50 (usually the concentration at which the toxic effect on the cells reaches its halfway point) at 48 h in data set [4] is more than 320 µM.
For `C=CCOC(=O)C=C`, the K in data set [1] is 19.6 M⁻¹ s⁻¹.
On to `C=C(C=O)CC`, for which the K in data set [1] was determined as 59.4 M⁻¹ s⁻¹.
For `CCOC(=O)/C=C/[C@H](CCC(N)=O)NC(=O)[C@H](Cc1ccccc1)NC(=O)[C@H](CC(C)C)NC(=O)OCc1ccccc1`, in data set [4], the CC50 at 48 h was more than 320 µM.
Regarding `CC(C)C[C@H](NC(=O)OCc1ccccc1)C(=O)N[C@@H](Cc1ccccc1)C(=O)N[C@H](/C=C/C(=O)c1ccc([N+](=O)[O-])cc1)CCC(N)=O`, the Ratio in the data set with rhinovirus B14 [2] was determined as 310000 M⁻¹ s⁻¹. Besides, the pEC50 in the data set with rhinovirus B14 [3] is less than 4.49. Also, in data set [4], the CC50 at 48 h came to 32 µM.
In the case of `CC(C)C[C@H](NC(=O)OCc1ccccc1)C(=O)N[C@@H](Cc1ccccc1)C(=O)N[C@H](/C=C/C(=O)O)CCC(N)=O`, in the data set with rhinovirus B14 [2], the Ratio was found to be 30 M⁻¹ s⁻¹. In the data set on rhinovirus B14 [3], this compound had a pEC50 of less than 4.00. In addition, the CC50 at 48 h in data set [4] is more than 100 µM.
Turning to `CC1=CCCC1=O`, the K in data set [1] stood at 0.2 M⁻¹ s⁻¹.
For `CCCC/C=C/C=C/C=O`, the K in data set [1] is 3.49 M⁻¹ s⁻¹.
Consider `CCOC(=O)/C(C)=C/[C@H](CCC(N)=O)NC(=O)[C@H](Cc1ccccc1)NC(=O)[C@H](CC(C)C)NC(=O)OCc1ccccc1`, for which, in the data set with rhinovirus B14 [2], the Ratio is 7300 M⁻¹ s⁻¹. In the data set on rhinovirus B14 [3], this compound showed a pEC50 of 5.52. This compound gave a cytotoxic concentration (CC50) at 48 h in data set [4] of more than 320 µM.
In the case of `C=CC(=O)OCC`, the K in data set [1] was 10.6 M⁻¹ s⁻¹.
Take `C/C=C/C(=O)OC`: the K in data set [1] was determined as 0.164 M⁻¹ s⁻¹.
Consider `CC(C)C[C@H](NC(=O)OCc1ccccc1)C(=O)N[C@@H](Cc1ccccc1)C(=O)N[C@H](/C=C1\CCOC1=O)CCC(N)=O`, for which the Ratio with rhinovirus B14 [2] turned out to be 10900 M⁻¹ s⁻¹. The same compound showed a pEC50 in the data set with rhinovirus B14 [3] of 5.28. Moreover, the CC50 at 48 h in data set [4] is more than 320 µM.
Regarding `CC(C)=CC=O`, the K in data set [1] was determined as 1.71 M⁻¹ s⁻¹.
Regarding `CCOC(=O)/C(F)=C/[C@H](CCC(N)=O)NC(=O)[C@H](Cc1ccccc1)NC(=O)[C@H](CC(C)C)NC(=O)OCc1ccccc1`, the Ratio in the data set with rhinovirus B14 [2] was determined as 60 M⁻¹ s⁻¹. The pEC50 in the data set on rhinovirus B14 [3] is less than 3.49. In data set [4], this compound returned a CC50 at 48 h of more than 320 µM.
As to `CC(=O)C=C(C)C`, in data set [1], the K is 0.208 M⁻¹ s⁻¹.
Regarding `C/C=C(\C)C(=O)OC`, the K in data set [1] was determined as 0.007 M⁻¹ s⁻¹.
`CCCC/C=C/C(C)=O`: the K in data set [1] worked out at 11.4 M⁻¹ s⁻¹.
Turning to `CC(=O)/C=C/[C@H](CCC(N)=O)NC(=O)[C@H](Cc1ccccc1)NC(=O)[C@H](CC(C)C)NC(=O)OCc1ccccc1`, in the data set on rhinovirus B14 [2], the Ratio turned out to be 54000 M⁻¹ s⁻¹. For the same compound, the pEC50 in the data set with rhinovirus B14 [3] is 5.70. For the same compound, in data set [4], the CC50 at 48 h was found to be 60 µM.
The corresponding values for `CC(C)C[C@H](NC(=O)OCc1ccccc1)C(=O)N[C@@H](Cc1ccccc1)C(=O)N[C@H](/C=C/C(=O)c1ccccc1)CCC(N)=O` are 500000 M⁻¹ s⁻¹, 5.40 and 16 µM.
With `C/C=C/C(C)=O`, the K in data set [1] was 26.7 M⁻¹ s⁻¹.
`C=CC#CC(C)=O`: the K in data set [1] is 80 M⁻¹ s⁻¹.
Turning to `CC(C)C[C@H](NC(=O)OCc1ccccc1)C(=O)N[C@@H](Cc1ccccc1)C(=O)N[C@H](/C=C/C(=O)N1CC=CC1)CCC(N)=O`, the Ratio in the data set on rhinovirus B14 [2] worked out at 8500 M⁻¹ s⁻¹. The compound also had a pEC50 with rhinovirus B14 [3] of less than 4.36. In data set [4], this compound displayed a 50% cytotoxic concentration (CC50) at 48 h of 44 µM.
In the case of `CC(C)C[C@H](NC(=O)OCc1ccccc1)C(=O)N[C@@H](Cc1ccccc1)C(=O)N[C@H](/C=C/C(=O)N(C)C)CCC(N)=O`, in the data set with rhinovirus B14 [2], the Ratio was determined as 1300 M⁻¹ s⁻¹. In addition, the pEC50 with rhinovirus B14 [3] was 4.25. For the same compound, the CC50 at 48 h in data set [4] is more than 100 µM.
As for `COC(=O)/C=C\[C@H](CCC(N)=O)NC(=O)[C@H](Cc1ccccc1)NC(=O)[C@H](CC(C)C)NC(=O)OCc1ccccc1`, in the data set with rhinovirus B14 [2], the Ratio was 2400 M⁻¹ s⁻¹. For the same compound, the pEC50 with rhinovirus B14 [3] is 5.38. The compound also returned a CC50 at 48 h in data set [4] of more than 320 µM.
On to `CCC/C=C/C/C=C/C=O`, for which the K in data set [1] was 22.8 M⁻¹ s⁻¹.
As to `C/C=C(\C)C(C)=O`, the K in data set [1] came to 0.779 M⁻¹ s⁻¹.
Take `C=CC(=O)OCCCC`: the K in data set [1] is 8.54 M⁻¹ s⁻¹.
For the compound `C=C(C)C=O`, the K in data set [1] came out at 203 M⁻¹ s⁻¹.
Regarding `CC/C=C/C=O`, the K in data set [1] was 28.3 M⁻¹ s⁻¹.
Turning to `C#CCOC(=O)C=C`, the K in data set [1] came out at 51.4 M⁻¹ s⁻¹.
The same measure, in the same setting: in the case of `CCCCC/C=C/C(=O)OC` it was 0.785 M⁻¹ s⁻¹.
